One series deals with Staphylococcus aureus. Put plainly: TLC bioautography antibacterial assay, S. aureus. The class given is cell-based. The settings on record: qualitative. How it is done: (§1) The crude (1st methanolic) extract of M. latifolia bark and five chromatographic fractions obtained using the purification process outlined in Example 1 were submitted for TLC bioautography studies for qualitative determination of antibacterial activity.
(§2) Briefly, a reference plate was prepared by loading the samples on a silica gel TLC plate which was developed using an established solvent system (10% ethyl acetate in petroleum ether) to separate their components based on polarity. The developed plates were then visualised using 5% v/v sulfuric acid in methanol+0.1% w/v vanillin in ethanol, followed by heat. Using this method, Balaenone was distinguished as a bright pink to red spot (see FIG. 7).
(§3) Multiple copies of this plate were then prepared and developed using the same solvent system, but instead are visualised by pouring agar inoculated/spiked with one of the following micro-organisms (see below) and allowed to incubate before visualisation with a reduction dye.

For series [1], the system named is Staphylococcus epidermidis. Put plainly: TLC bioautography antibacterial assay, S. epidermidis. The class given is cell-based. The settings on record: qualitative. As to the method:
as §1, §2, §3

Series [2] is described as follows: Storage stability of Balaenone. The class given is physicochemical. The settings on record: away from light and oxygen. The text has this:
Final purification of trans-Balaenone on silica gel separated it from an oxygenated aromatic compound, subsequently identified as halifordin (8). Without being bound by theory, it is believed that degradation is due to the presence of halifordin (8), which is also present in the methanol extract of M. latifolia.
In a separate experiment, purified trans-Balaenone was photochemically reacted with atmospheric oxygen in the presence of Rose Bengal (another known photogenerator of singlet oxygen), which generated 7b among other oxidation products.
Removal of halifordin (8) from the extract provides a purified composition of trans-Balaenone in which trans-Balaenone is stable at room temperature, when stored away from light and oxygen. It is believed that the same process would occur with respect to cis-Balaenone.

`CC1=C2c3c(C)coc3CCC(C)C2CC1=O` (stereo not shown) [Balaenone]: the “antibacterial activity (zones of inhibition)” value (in the series on Staphylococcus aureus; in series [1]) was “zones of inhibition” throughout.
With `CC1=C2c3c(C)coc3CC[C@H](C)[C@H]2CC1=O` [trans-Balaenone, (6S,6aR)-1,6,9-trimethyl-5,6,6a,7-tetrahydroazuleno[5,4-b]furan-8(4H)-one], the stability on storage result in series [2] (cool temperatures) is “quite stable”; in series [2] (room temperature, in the absence of halifordin (8)) it was “essentially stable”.

Source of the values: patent publication US12065420B2, “Uses of balaenone and method of extraction thereof” (HARDIE HEALTH LIMITED, priority 2018, dated 2024).
